Molecular target: tau (Homo sapiens, UniProt P10636)
Experiment: MCE Phenols Library screening, tau biosensor cell seeding assay (AvZ)
Assay type: cell-based
Conditions: for Z repl 1 / Z Repl 2: Z score; for Z repl 1 / raw data 1: replicate 1; for Z Repl 2 / raw data 2: replicate 2; for AvZ (average z score of seeding, SDs from the mean level of seeding): 10 μM phenol in cell cultures, AD brain homogenate preincubated 16 hours, two biological replicates, positive = catalyzes seeding, negative = inhibits
[1] = average Z score of two replicates, Phenols Library screen
[2] = average Z score of the two replicates, MCE Phenols Library screen
[3] = average puncta of the two replicates
[4] = average Z score of the two replicates, tau seeding
[5] = average Z score of the two replicates, tau biosensor seeding, MCE Phenols Library screen

tau, sequence (P10636 623-695 limits assumed): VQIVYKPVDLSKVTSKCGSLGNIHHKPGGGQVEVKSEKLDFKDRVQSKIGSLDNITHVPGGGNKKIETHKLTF

SMILES	Z repl 1	Z Repl 2	av Z [1]	av puncta (average of raw data 1 and 2)	raw data 1 (puncta)	raw data 2 (puncta)	av Z [2]	av puncta [3]	raw data 1 (raw puncta)	raw data 2 (raw puncta)	av Z [4]	AvZ (average z score of seeding, SDs from the mean level of seeding)	av Z [5]
O=C(OCC1=C[C@@H](O)[C@@H]2C=CO[C@@H](O[C@@H]3O[C@H](CO)[C@@H](O)[C@H](O)[C@H]3O)[C@H]12)c1ccc(O)cc1 [Agnuside]	-0.301	0.292	-0.004	19312.6	22737.6	15887.6	–	–	–	–	–	–	–
CCCC(=O)c1c(O)c(Cc2c(O)c(Cc3c(O)c(C)c(OC)c(C(=O)CCC)c3O)c(O)c(C(=O)[C@@H](C)CC)c2O)c(O)c(C)c1OC [Agrimol B]	-1.539	-0.722	–	6464.64	7875.9	5053.37	-1.13	–	–	–	–	–	–
O=C1c2ccccc2C(=O)c2c1ccc(O)c2O [Alizarin]	-0.67	-0.047	–	–	–	–	-0.359	15284.3	18305.8	12262.8	–	–	–
CC(C)=CCc1c2ccoc2c(O)c2oc(=O)ccc12 [Alloimperatorin]	0.545	-0.475	0.035	20292.7	32890.3	7695.05	–	–	–	–	–	–	–
COc1cc(C)c2c(=O)cc(C[C@@H](C)O)oc2c1[C@@H]1O[C@H](CO)[C@@H](O)[C@H](O)[C@H]1OC(=O)/C=C/c1ccc(O)cc1 [Aloeresin D]	-0.796	-0.937	–	9774.18	16789.2	2759.19	-0.867	–	–	–	–	–	–
O=c1cc(-c2ccc(O)c(-c3c(O)cc(O)c4c(=O)cc(-c5ccc(O)cc5)oc34)c2)oc2cc(O)cc(O)c12 [Amentoflavone]	-0.87	-0.309	–	–	15910.5	9468.24	-0.589	12689.4	–	–	–	–	–
CCCCCCCCCCCCCCCc1cccc(O)c1C(=O)O [Anacardic Acid]	0.086	-0.324	–	18346.5	27383.8	9309.16	–	–	–	–	–	-0.119	–
COc1cc(C(C)=O)ccc1O [Apocynin]	-1.155	-0.185	–	–	12482.9	10795.4	–	11639.1	–	–	–	-0.67	–
CC(=O)c1cc2c(CO)cc(O)cc2oc1=O [Armillarisin A]	-0.702	0.126	–	–	–	–	-0.288	16013.9	17917.5	14110.3	–	–	–
COC(=O)c1c(C)cc(OC(=O)c2c(C)cc(O)c(C=O)c2O)c(C)c1O [Atranorin]	-0.357	-0.801	–	–	22066.2	4207.53	-0.579	13136.9	–	–	–	–	–
COc1cc(O)c2c(=O)c(OC)c(-c3ccc(OC)c(O)c3)oc2c1 [Ayanin]	-1.206	-0.903	–	7498.38	11871.6	3125.17	-1.054	–	–	–	–	–	–
COc1ccc(-c2oc3c(CC=C(C)C)c(O)cc(O)c3c(=O)c2O[C@@H]2O[C@@H](C)[C@H](O)[C@@H](O)[C@H]2O)cc1 [Baohuoside I]	0.959	1.521	–	33434.4	37856.1	29012.8	–	–	–	–	–	–	1.24
CC(C)=CCc1cc(C(=O)/C=C/c2ccc(O)cc2)c(O)cc1O [Bavachalcone]	-0.876	-0.134	–	–	15835.9	11333.2	-0.505	13584.6	–	–	–	–	–
CC(C)=CCc1cc2c(cc1O)O[C@H](c1ccc(O)cc1)CC2=O [Bavachin]	-0.343	-0.767	–	–	22229.8	4573.9	-0.555	13401.9	–	–	–	–	–
COc1ccc2cc3[n+](cc2c1O)CCc1cc2c(cc1-3)OCO2.[Cl-] [Berberrubine (chloride)]	0.031	-0.189	-0.079	18734.2	26719.5	10748.8	–	–	–	–	–	–	–
COc1c(O)cc2c(c1O)[C@@H]1O[C@H](CO)[C@@H](O)[C@H](O)[C@H]1OC2=O [Bergenin]	0.275	-0.537	-0.131	18336.6	29646.8	7026.42	–	–	–	–	–	–	–
CC(=O)OC(C)(C)CC(=O)O[C@H](CC=C(C)C)C1=CC(=O)c2c(O)ccc(O)c2C1=O [Beta-Acetoxyisovalerylshikonin]	-0.24	0.548	–	21041.3	23464.1	18618.6	–	–	–	–	0.154	–	–
O=C(/C=C/c1ccc(O)cc1)CC(=O)/C=C/c1ccc(O)cc1 [Bisdemethoxycucurmin]	0.602	-0.122	–	22516.9	33572.4	11461.3	–	–	–	–	0.24	–	–
CC(C)(c1ccc(O)cc1)c1ccc(O)cc1 [Bisphenol A]	0.124	0.085	0.104	20753.8	27836.8	13670.7	–	–	–	–	–	–	–
COc1cc(O)c2c(c1)O[C@H](c1cc(O)cc(O)c1)CC2=O [Blumeatin]	-0.753	-0.754	–	–	17305.9	4717.73	-0.753	11011.8	–	–	–	–	–

The remaining lines, values ahead:

Z repl 1	Z Repl 2	av Z [1]	av puncta (average of raw data 1 and 2)	raw data 1 (puncta)	raw data 2 (puncta)	av Z [2]	av puncta [3]	raw data 1 (raw puncta)	raw data 2 (raw puncta)	av Z [4]	AvZ (average z score of seeding, SDs from the mean level of seeding)	av Z [5]	SMILES
-0.712	-0.064	–	–	–	–	-0.388	14937.3	17796.3	12078.3	–	–	–	O=C1c2cc(CO)cc(O)c2C(=O)c2c(O[C@@H]3O[C@H](CO)[C@@H](O)[C@H](O)[C@H]3O)cccc21 [Aloe-emodin-8-O-?-D-glucopyranoside]
0.457	-0.177	–	21354.9	31839.2	10870.5	–	–	–	–	0.14	–	–	CC(=O)Cc1cc(=O)c2c(C)cc(O)c([C@@H]3O[C@H](CO)[C@@H](O)[C@H](O)[C@H]3O)c2o1 [Aloesin]
0.434	-0.315	0.059	20479	31560.5	9397.5	–	–	–	–	–	–	–	O=C1c2c(O)cccc2[C@@H]([C@@H]2O[C@H](CO)[C@@H](O)[C@H](O)[C@H]2O)c2cc(CO)cc(O)c21 [Aloin B]
-0.336	-0.332	–	–	–	–	-0.334	15768.9	22314.5	9223.26	–	–	–	O=C1c2c(O)cccc2C([C@@H]2O[C@H](CO)[C@@H](O)[C@H](O)[C@H]2O)c2cc(CO)cc(O)c21 (stereo partly drawn) [Aloin(mixture of A&B)]
0.178	0.236	–	21886.9	28489.7	15284.2	–	–	–	–	0.207	–	–	O=C1c2c(O)cccc2C([C@@H]2O[C@H](CO)[C@@H](O)[C@H](O)[C@H]2O)c2cc(CO)cc(O)c21 (stereo partly drawn) [Aloin]
0.518	-0.371	0.074	20688.8	32570.5	8807.12	–	–	–	–	–	–	–	O=c1cc(-c2ccc(O)cc2)oc2cc(O[C@@H]3O[C@H](CO)[C@@H](O)[C@H](O)[C@H]3O)cc(O)c12 [Apigenin 7-glucoside]
1.204	0.234	–	28032.2	40800.8	15263.6	–	–	–	–	0.719	–	–	O=c1cc(-c2ccc(O)cc2)oc2cc(O[C@@H]3O[C@H](CO)[C@@H](O)[C@H](O)[C@H]3O[C@@H]3OC[C@](O)(CO)[C@H]3O)cc(O)c12 [Apiin]
-0.665	0.333	-0.166	17341.3	18360	16322.6	–	–	–	–	–	–	–	OC[C@H]1O[C@@H](Oc2ccc(O)cc2)[C@H](O)[C@@H](O)[C@@H]1O [Arbutin]
-0.525	-0.638	–	–	20041.3	5956.82	-0.581	12999	–	–	–	–	–	O=c1c(O[C@@H]2O[C@H](CO)[C@@H](O)[C@H](O)[C@H]2O)c(-c2ccc(O)cc2)oc2cc(O)cc(O)c12 [Astragalin]
-0.961	-0.271	–	–	14810.1	9875.55	-0.616	12342.8	–	–	–	–	–	COc1c(O[C@@H]2O[C@H](CO)[C@@H](O)[C@H](O)[C@H]2O)cc2c(c1O)C(=O)c1c(cc(C)c(O)c1OC)C2=O [Aurantio-obtusin ?-D-glucoside]
1.115	1.158	–	32432	39734.3	25129.7	–	–	–	–	–	–	1.136	O=c1c(O[C@@H]2O[C@@H](CO)[C@H](O)[C@H]2O)c(-c2ccc(O)c(O)c2)oc2cc(O)cc(O)c12 [Avicularin]
1.152	0.927	–	31424.7	40179	22670.4	–	–	–	–	–	–	1.04	O=c1c(O[C@@H]2O[C@H](CO)[C@@H](O)[C@H](O)[C@H]2O[C@@H]2O[C@H](CO)[C@@H](O)[C@H](O)[C@H]2O)c(-c2ccc(O)c(O)c2)oc2cc(O)cc(O)c12 [Baimaside]

From article PMC11784839, “Monoaminergic neurotransmitters are bimodal effectors of tau aggregation” (Science Advances, 2025)
